Here are results for 12 molecules from PubChem BioAssay (NCI).

Test systems include NCI-H460 lung; RXF 393 renal; SK-MEL-5 melanoma; 786-0 renal; HOP-92 NSCLC; SK-MEL-2 melanoma; UACC-62 melanoma; BT-549 breast; NCI/ADR-RES ovarian; SF-295 CNS; KM12 colon.
Common to all, as to assay: NCI-60 cell line screen, 48 h

Several values for one entry are separate records, joined by “and”; a condition that tells them apart may be missing. Equal entries are not always repeated.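 Compound exposure: 48 hours, 5 concentrations, 96-well plates. GI50: concentration for 50% inhibition of growth. TGI marks complete inhibition of growth.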 A value given as a limit tells only on which side of the number the result lay.

On to `Cc1c2cnccc2c(C)c2c1c1ccccc1n2CCCN`, for which the GI50 was 0.113 µM and 0.0472 µM in the assay on NCI-H460 lung; 1.01 µM in the assay with SK-MEL-5 melanoma; 0.776 µM in the assay on HOP-92 NSCLC; 0.348 µM in the assay on SK-MEL-2 melanoma; 0.517 µM with UACC-62 melanoma; 0.285 µM and 0.24 µM with SF-295 CNS. The GI50 with KM12 colon is 0.0374 µM. For the same molecule, the TGI in the assay with NCI-H460 lung is 0.335 µM and 0.22 µM; with RXF 393 renal, 0.799 µM and 0.888 µM; with SK-MEL-5 melanoma it was 1.44 µM and 2.17 µM; with 786-0 renal, 0.564 µM; with HOP-92 NSCLC, 1.22 µM and 2.14 µM; with SK-MEL-2 melanoma it was 1.59 µM and 1.42 µM. In addition, the TGI was 1.7 µM and 1.75 µM in the assay with UACC-62 melanoma; 2.85 µM with BT-549 breast; 1.04 µM and 1.16 µM in the assay on NCI/ADR-RES ovarian; 0.865 µM and 1.24 µM in the assay on SF-295 CNS; 0.815 µM and 0.286 µM in the assay with KM12 colon.
Turning to `COc1cc(/C=C2\S/C(=N/Nc3nc(-c4ccc(Br)cc4)cs3)NC2=O)cc(OC)c1OC`, the TGI with NCI-H460 lung came out at 37.4 µM; in the assay on RXF 393 renal it was 19.4 µM; with SK-MEL-5 melanoma, 20.2 µM; in the assay on 786-0 renal, 26.5 µM; in the assay with HOP-92 NSCLC, 18.3 µM; in the assay with SK-MEL-2 melanoma, 35.8 µM. Also, the TGI with UACC-62 melanoma came to 25.4 µM; in the assay on BT-549 breast, 33.8 µM; with NCI/ADR-RES ovarian, 35.1 µM; in the assay on SF-295 CNS, 36.6 µM; with KM12 colon, 32.8 µM.
For `COc1c(C)c(C/C=C(\C)CCCCO[Si](c2ccccc2)(c2ccccc2)C(C)(C)C)c(OC)c(OC)c1OC`, the TGI with NCI-H460 lung was 25 µM; in the assay with RXF 393 renal, over 100 µM; in the assay with SK-MEL-5 melanoma, 38.6 µM; with 786-0 renal, 40.5 µM; in the assay on HOP-92 NSCLC it was over 31.6 µM; with SK-MEL-2 melanoma, over 100 µM. Further, the TGI in the assay on UACC-62 melanoma is over 46.4 µM; in the assay with BT-549 breast, over 46.4 µM; in the assay with NCI/ADR-RES ovarian, 35.1 µM; with SF-295 CNS, over 46.4 µM; in the assay with KM12 colon, 26.4 µM.
As for `CCc1ccc(CCN2CCCCC2)nc1`, the TGI with NCI-H460 lung, in the assay on RXF 393 renal, in the assay with SK-MEL-5 melanoma, with 786-0 renal, in the assay with HOP-92 NSCLC and in the assay with SK-MEL-2 melanoma was over 100 µM each time. The TGI in the assay with UACC-62 melanoma, in the assay with BT-549 breast, with NCI/ADR-RES ovarian, in the assay on SF-295 CNS and with KM12 colon was over 100 µM each time.
As for `O=c1[nH]cc(N=Cc2cc(Cl)cc(Cl)c2O)c(=O)[nH]1`, the TGI with NCI-H460 lung is over 100 µM; with RXF 393 renal it was over 100 µM; in the assay on SK-MEL-5 melanoma it was 42.6 µM; in the assay with 786-0 renal, 62.2 µM; with HOP-92 NSCLC it was 89 µM; with SK-MEL-2 melanoma it was 41.6 µM. Moreover, the TGI with UACC-62 melanoma stood at 61.5 µM; in the assay on BT-549 breast it was 94.9 µM; in the assay with NCI/ADR-RES ovarian, 47.8 µM; in the assay with SF-295 CNS, 96.1 µM; with KM12 colon, 85 µM.
Take `O=[N+]([O-])C(=C1NCCN1)/C(Cl)=C(\Cl)Br`: the TGI in the assay on NCI-H460 lung was over 100 µM; in the assay on RXF 393 renal it was 39.1 µM; in the assay on SK-MEL-5 melanoma, over 100 µM; with 786-0 renal, 33.5 µM; with HOP-92 NSCLC, over 62.2 µM; in the assay on SK-MEL-2 melanoma, over 100 µM. Moreover, the TGI with UACC-62 melanoma was over 100 µM; in the assay on BT-549 breast, over 96 µM; in the assay with NCI/ADR-RES ovarian it was over 100 µM; with SF-295 CNS, over 100 µM; with KM12 colon it was over 100 µM.
With `Cc1cccc(/C=N/NC(=S)Nc2ccccc2)n1`, the TGI in the assay with NCI-H460 lung is 9.13 µM; with RXF 393 renal, 28.1 µM; with SK-MEL-5 melanoma, over 22.5 µM; in the assay on 786-0 renal, 9.14 µM; in the assay on HOP-92 NSCLC it was over 92.9 µM; with SK-MEL-2 melanoma it was 36 µM. In addition, the TGI with UACC-62 melanoma is 12.5 µM; in the assay with BT-549 breast it was 75 µM; in the assay on NCI/ADR-RES ovarian, 10.8 µM; with SF-295 CNS, over 100 µM; in the assay with KM12 colon it was over 100 µM.
Consider `O=C(NNC(=O)c1ccccc1SSc1ccccc1C(=O)NNC(=O)c1ccccc1S)c1ccccc1S`, for which the TGI was over 100 µM with NCI-H460 lung; over 100 µM in the assay with RXF 393 renal; over 100 µM in the assay on SK-MEL-5 melanoma; 98 µM with 786-0 renal; over 100 µM in the assay on HOP-92 NSCLC; over 90.5 µM in the assay on SK-MEL-2 melanoma. Moreover, the TGI was 54.8 µM in the assay on UACC-62 melanoma; 74.8 µM in the assay on BT-549 breast; over 73.6 µM with NCI/ADR-RES ovarian; over 100 µM in the assay on SF-295 CNS; over 100 µM with KM12 colon.
As to `O=C(CCC(=O)c1ccc(Cl)cc1)NO`, the TGI in the assay on NCI-H460 lung, in the assay on RXF 393 renal, in the assay with SK-MEL-5 melanoma, in the assay on 786-0 renal, with HOP-92 NSCLC and with SK-MEL-2 melanoma was over 100 µM in each case. Besides, the TGI with UACC-62 melanoma, in the assay on BT-549 breast, with NCI/ADR-RES ovarian, in the assay on SF-295 CNS and with KM12 colon was over 100 µM each time.
As for `FC(F)(F)c1cc(Cl)cnc1N/N=C(/c1ccccc1)c1ccccn1`, the TGI with NCI-H460 lung was 15 µM; with RXF 393 renal, 40.9 µM; in the assay with SK-MEL-5 melanoma, over 100 µM; with 786-0 renal, 16.4 µM; in the assay with HOP-92 NSCLC, 16.3 µM; with SK-MEL-2 melanoma it was 20.1 µM. Moreover, the TGI is 13.2 µM in the assay with UACC-62 melanoma; 36.4 µM in the assay with BT-549 breast; 6.76 µM with NCI/ADR-RES ovarian; 5.5 µM in the assay on SF-295 CNS; 30.1 µM with KM12 colon.
As for `C[C@@]12C[C@@H](c3ccccc3O1)N1CCCCSC1=N2`, the TGI with NCI-H460 lung, with RXF 393 renal, in the assay with SK-MEL-5 melanoma, with 786-0 renal, in the assay on HOP-92 NSCLC and in the assay with SK-MEL-2 melanoma was over 100 µM each time. The TGI in the assay on UACC-62 melanoma, in the assay with BT-549 breast, in the assay with NCI/ADR-RES ovarian, in the assay on SF-295 CNS and in the assay on KM12 colon was over 100 µM throughout.
With `Cc1nc(C(N)=S)sc1/C(CC(=O)C(=O)Nc1cccc2ccc(O)cc12)=N\NC(=O)c1ccncc1`, the TGI is 64.6 µM in the assay with NCI-H460 lung; over 100 µM in the assay with RXF 393 renal; over 100 µM in the assay on SK-MEL-5 melanoma; over 100 µM in the assay on 786-0 renal; over 100 µM with HOP-92 NSCLC; over 100 µM with SK-MEL-2 melanoma. In addition, the TGI in the assay with UACC-62 melanoma, in the assay on BT-549 breast, with NCI/ADR-RES ovarian, in the assay with SF-295 CNS and with KM12 colon was over 100 µM in each case.
